Where two headings read alike, the source gives them in different places.
How the values were obtained:
[1] = tested on: α2δ subunit of calcium channels; settings: 10 nM [^3H]GBP; for Ki: one-site binding model
[2] = tested on: IMR32 cells; experiment: Differentiation of IMR32 cells with BrdU, density of [^3H]GBP binding sites; format: cell-based, human; settings: 10 μM BrdU for 10 to 12 days
Protocol: IMR32 cells, SK-N-MC cells and NG 108 cells as well as cells treated in culture with 10 μM of BrdU for 10 to 12 days were used. Cells were harvested and homogenates were made in HEPES/KOH buffer, pH 7.4. The homogenates were centrifuged for 15 min at 1000×g, and the supernatants were centrifuged at 40000×g for 15 min to obtain cell membranes.

Ki ([1]; read-out: Ki (nM) BrdU, differentiated (BrdU) IMR32 cell membranes) [nM] | Ki ([1]; read-out: Ki (nM) Control, undifferentiated (Control) IMR32 cell membranes) [nM] | SMILES | inhibition of [^3H]GBP binding to IMR32 cell membranes ([1]; varying concentrations (FIG. 3)) | expression of [^3H]GBP binding sites [2]
30 | 39 | CSCC[C@H](N)C(=O)O [L-methionine] | dose-dependently inhibited | 
 |  | O=c1[nH]c(=O)n([C@H]2C[C@H](O)[C@@H](CO)O2)cc1Br [BrdU, 5-Bromo-2′-deoxyuridine] |  | increased

Source: patent US6838249B2, “Neuroblastoma cell lines expressing the α2δ subunit of calcium channels and methods therefore” (priority 2001, dated 2005)
